Experimental data published in patent publication US20240197729A1, “ALK-5 Inhibitors and Uses Thereof” (Sumitomo Pharma Oncology, Inc., priority 2021, published 2024).

Experiments:
[1] = tested on: SMAD signaling triggered by myostatin; experiment: Myostatin-triggered SMAD signaling in RDSR cells; format: cell-based; settings: Homo sapiens, 50 ng/ml myostatin, 24 h
Protocol: To determine the ability of compounds to inhibit the SMAD signaling triggered by myostatin, and therefore possibly help alleviate cachexia in cancer patients, the following assay was performed. The RD cell line, a human rhabdomyosarcoma cell line, was purchased from ATCC (CCL-136) and a stably SMAD reporter plasmid (Promega, pGL4.48[luc2P/SBE/Hygro]) was introduced to create the RD SMAD Reporter (RDSR) cell line. Twenty thousand RDSR cells were seeded into a 96-well plate (Greiner bio-one 655083) in DMEM media supplemented with 10% fetal bovine serum. Cells were pre-incubated with selected compounds at various concentrations (8-point curve ranging from 10 micromolar to 610 picomolar) for one hour, then were stimulated with 50 nanograms per milliliter myostatin (R&D, 788-G8-010) for twenty-four hours. The luciferase signal was then read out with One-Glo substrate on the Envision plate reader.

ALK5 = molecular target: T1, ALK5 (Homo sapiens, UniProt P36897); experiment: LanthaScreen Eu Kinase Binding Assay, ALK5; settings: 10-point titration, read-out: Kinase Inhibition: ALK5 IC50 (Lantha)
T1 sequence (P36897 34-503): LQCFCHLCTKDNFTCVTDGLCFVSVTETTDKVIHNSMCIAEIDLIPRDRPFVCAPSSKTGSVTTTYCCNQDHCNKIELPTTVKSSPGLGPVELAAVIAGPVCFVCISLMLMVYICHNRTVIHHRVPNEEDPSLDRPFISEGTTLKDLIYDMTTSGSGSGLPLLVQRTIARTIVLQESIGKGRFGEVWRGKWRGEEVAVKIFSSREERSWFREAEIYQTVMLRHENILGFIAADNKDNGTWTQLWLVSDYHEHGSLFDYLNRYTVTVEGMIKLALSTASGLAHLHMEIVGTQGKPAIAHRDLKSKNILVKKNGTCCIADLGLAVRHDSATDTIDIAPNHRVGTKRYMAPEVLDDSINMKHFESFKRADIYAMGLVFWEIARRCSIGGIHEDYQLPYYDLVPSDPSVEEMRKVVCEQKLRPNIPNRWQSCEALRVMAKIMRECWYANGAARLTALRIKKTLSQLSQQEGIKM
Protocol: Selected compounds of the present disclosure were assayed for inhibitory activity against ALK5 and ALK2. Activity determinations and selectivity were conducted by Thermo Fisher Scientific SelectScreen™ Biochemical Kinase Profiling Service using their LanthaScreen™ Eu Kinase Binding Assay Screening.
Binding of an Alexa Fluor™ conjugate or “tracer” to a kinase is detected by addition of a Eu-labeled anti-tag antibody. Binding of the tracer and antibody to a kinase results in a high degree of FRET, whereas displacement of the tracer with a kinase inhibitor results in a loss of FRET. This assay is carried out by mixing the compound tested with the reagents and reading; no development step is required.
Life Technologies' Kinase Tracers are based on ATP-competitive kinase inhibitors, making them suitable for detection of any compounds that bind to the ATP site. Inhibitors that bind the ATP site include both Type I kinase inhibitors, which bind solely to the ATP site, and Type II inhibitors (e.g., Gleevec®/Imatinib, Sorafenib, BIRB-796), which bind to both the ATP site and a second site often referred to as the allosteric site.
The test compounds were screened in 1% DMSO (final) in the well. For 10-point titrations, 3-fold serial dilutions were conducted from the starting concentration (see Table 2 below).
All Kinase/Antibody Mixtures were diluted to a 2× working concentration in the specified kinase buffer. The 4× AlexaFluor labeled Tracer was prepared in Kinase Buffer.
• Bar-coded, low volume, white, 384-well plate (Greiner Cat. #784207) • 1. 160 nL—100× Test Compound in 100% DMSO • 2. 3.84 μL—Kinase Buffer • 3. 8.0 μL—2× Kinase/Antibody Mixture • 4. 4.0 μL—4× Tracer • 5. 30-second plate shake • 6. 60-minute incubation at room temperature • 7. Read on fluorescence plate reader and analysis of the data
The following controls were made for each individual kinase and were located on the same plate as the kinase:
100% Displacement Control: The minimum Emission Ratio was established by the 100% Displacement Control wells, which contained the highest concentration of the known inhibitor used in that assay.
Known Inhibitor: A known inhibitor control standard curve, 10-point titration, was run for each individual kinase on the same plate as the kinase to ensure the inhibitor was displaced within an expected IC50 range previously determined.
The following equations were used for each set of data points: […]
Data generated were plotted using the graphing software XLfit from IDBS. The dose response curve was curve fit to model number 205.

JAK signaling = experiment: JAK selectivity assay, HEK blue IL-12 reporter; format: cell-based; settings: HEK-Blue, 24 h, 12.5 ng/ml IL-12, 24 h
Protocol: The cells were purchased from Invivogen (Catalog Nr: hkb-il12) and maintained according to vendor instructions. On the day of the experiment, cells were harvested by repeated tapping of the flask to shake loose the cells attached to the bottom of the flask. Then, cells were harvested, washed and resuspended in DMEM media supplemented with 10% fetal calf serum. 30 Microliters of cell suspension was seeded into a 384-well tissue culture-coated plate containing approximately 10,000 total cells. […] Using the ECHO “Dose Response” software, the test compound was added in duplicate wells with a 3-fold dilution curve. DMSO was back-filled to normalize the DMSO across all wells. […] After 30 minutes of incubation at room temperature, the optical density was measured at 620 nanometer using the Perkin Elmer Envision plate reader. A color change can be detected at this wavelength when secreted alkaline phosphatase, which is triggered by IL-12 signaling, is present in the supernatant. […]

Row | Structure (SMILES) | IC50 [1] [nM] | IC50 (ALK5) [nM] | IC50 (JAK signaling) [nM]
1 | Clc1cccc2c(Nc3ccnc(Nc4cccc(N5CCOCC5)c4)c3)cnnc12 [Compound 04, N4-(8-chlorocinnolin-4-yl)-N2-[3-(morpholin-4-yl)phenyl]pyridine-2,4-diamine] | 19.1 | 2 to 5 | 3700
2 | Cc1nn(CC(F)(F)F)cc1Nc1cc(Nc2cnnc3c(C)cccc23)ccn1 [Compound 01, N2-[3-methyl-1-(2,2,2-trifluoroethyl)-1H-pyrazol-4-yl]-N4-(8-methylcinnolin-4-yl)pyridine-2,4-diamine] | 57.1 | ≤ 2 | 3800
3 | Cc1cccc2c(Nc3ccnc(Nc4ccc(N5CCOCC5)cc4)c3)cnnc12 [Compound 05, N4-(8-methylcinnolin-4-yl)-N2-[4-(morpholin-4-yl)phenyl]pyridine-2,4-diamine] |  | 2 to 5 | 
4 | Cc1cccc(-c2[nH]c(CNc3ccccc3F)nc2-c2ccc3ncnn3c2)n1 [Vactosertib, vactosertib, reference compound] | 16.4 |  | 18500
